These results are taken from PubChem BioAssay AID2060359 (Molecular Pharmacology Branch, DTP, NCI, 2025).

Where “and” joins values, the source holds several entries; their conditions need not be identical. Identical values can stand only once.

In this assay the test system is 276233-004-R-J1-PDC spheroids with HUVEC/MSC, viability. The assay can be described thus: Anticancer human tumor 276233-004-R-J1-PDC patient-derived colon adenocarcinoma cell line growth inhibition [TAK]. As to conditions: for viability, T/C: stronger effect = lower value. The text has this: Combinatorial screen of targeted agents with TAK-243 and ipatasertib in multi-cell type tumor spheroids
A high-throughput screen of multi-cell type tumor spheroids was designed to identify active combinations of targeted small molecules and TAK-243 or ipatasertib. Complex spheroids include a stromal component modeled by human endothelial cells (HUVEC) and fibroblasts modeled by human mesenchymal stem cells (MSCs). The concentration ranges selected for each drug and investigational agent were based upon clinically achievable concentrations if the clinical Cmax of the agent was known.
Compounds. The drugs and investigational agents: TAK-243 (785004), ipatasertib (767898), everolimus (733504), selumetinib (741078), bortezomib (756655), trametinib (758246), ixazomib (758254), vemurafenib (761431), dabrafenib (764134), sapanisertib (764658), alpelisib (765974), and copanlisib (816437), were obtained from the National Cancer Institute (NCI) Developmental Therapeutics Program Chemical Repository. The FDA-approved anticancer drug set is available from the NCI Developmental Therapeutics Program. […] The stock solutions were prepared in dimethyl sulfoxide (DMSO, Sigma-Aldrich, St. Louis, MO, cat. D2650) at 800-fold the tested concentration and stored at -70 degrees C prior to their use. All drugs and investigational agents were tested over a range starting from a high concentration at or near the clinical Cmax and decreasing in half-log increments. If the clinical Cmax for an agent had not been determined, the highest concentration tested was 10 microM.
NCI60 Cell Culture. NCI60 cell lines were obtained from the NCI Developmental Therapeutics Program Tumor Repository. For each lot of cells, the Repository performed Applied Biosystems AmpFLSTR Identifiler testing with PCR amplification to confirm consistency with the published Identifier STR profile for each cell line. Cells were kept in continuous culture for no more than 20 passages. The optimal seeding densities for each of the cell lines at each time point assessed were determined prior to performing the concentration response studies. Briefly, the NCI60 human tumor lines were grown as monolayers in RPMI 1640 medium supplemented with 10% FBS and 2 mmol/L L-glutamine.
An additional 2 lines were from the NCI60 cell line panel including melanomas, MALME-3M and SK-MEL-2. Pooled donor human umbilical vein endothelial cells (HUVEC, Lonza, cat. CC-2519) and human mesenchymal stem cells (hMSC, Lonza, cat. PT-2501) were purchased from Lonza (Walkersville, MD).
PDMR cell lines were grown in complete medium (DC medium): Dulbecco's modified Eagle's medium (DMEM)/F12 supplemented with 5% fetal bovine serum (FBS), 2 mM L-glutamine, 100 U/mL penicillin and 100 µg/ml streptomycin, 0.4 µg/ml hydrocortisone, 10 ng/ml epidermal growth factor (EGF) recombinant human protein, 24 µg/mL adenine, and 0.1 mg/mL primocin. During culture from frozen stock vials, PDMR cells were cultured in the same medium containing 10 µM Y-27632 (see Table 3). The PDCs were cultured in complete DMEM/F12 media without 10 microM Y-27632 dihydrochloride for at least two passages prior to the screen. The pooled donor HUVEC and hMSC were cultured in endothelial cell growth medium 2 (PromoCell, Heidelberg, Germany, cat. C-22011) and mesenchymal stem cell growth medium 2 (PromoCell, cat. C-28009), respectively. For all experiments, HUVEC and hMSC were used at passages </=5.
For the pre-screen, cell seeding densities were determined from a titration spanning the range from 5,000 to 313 cells per well. The mct-spheroids including 60% malignant cells, 25% HUVEC and 15% MSC dispensed as a mixture into U-bottom Ultra-Low Attachment 384-well plates (Corning, NY)
High-throughput Drug Combination Screening.
Prior to their inoculation into 384-well plates, malignant cells, HUVEC, and hMSC were removed from T flasks using TrypLE express (Thermo Fisher Scientific, cat. 12605036) and harvested by centrifugation for 5 min at 233 x g. […]

[1] abbreviates: curve of first compound, second compound 0.3 µM.
[2] abbreviates: curve of first compound, second compound 0.949 µM.
Setting [3] is: curve of first compound, second compound 3 µM.
[4] abbreviates: curve of first compound, second compound 9.49 µM.
Setting [5] is: curve of first compound, second compound 30 µM.
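Further: spheroids exposed to drugs for seven days before the viability read.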

For orientation: viability, T/C means the ratio of treated to control. The term IC50 denotes the concentration that inhibits the measured activity by half. As to `CC(C)n1nc(-c2ccc3oc(N)nc3c2)c2c(N)ncnc21`, the viability, T/C reads like this: (compound 0.000316 µM) 104% and 103%; (compound 0.001 µM) 116% and 96.9%; (compound 0.00316 µM) 90.4% and 95.4%; (compound 0.01 µM) 76.1% and 71.7%; (compound 0.0316 µM) 82.8% and 66.4%; (compound 0.1 µM) 62% and 57.5%. In addition, the IC50 (curve of compound) is over 100 nM.

Consider `CC(C)CC(NC(=O)CNC(=O)c1cc(Cl)ccc1Cl)B1OC(=O)CC(CC(=O)O)(C(=O)O)O1` (stereo unspecified), for which the viability, T/C runs as follows: (compound 0.000316 µM) 99.7% and 101%; (compound 0.001 µM) 110% and 108%; (compound 0.00316 µM) 102% and 83.4%; (compound 0.01 µM) 103% and 92.3%; (compound 0.0316 µM) 91.4% and 105%; (compound 0.1 µM) 19.5% and 23.7%. Also, the half-inhibitory concentration (IC50) (curve of compound) was 61.4 nM and 66.5 nM.

Take `CCCS(=O)(=O)Nc1ccc(F)c(C(=O)c2c[nH]c3ncc(-c4ccc(Cl)cc4)cc23)c1F`: the viability, T/C is 81.8% and 103% (compound 0.316 µM); 84.5% and 105% (compound 1 µM); 114% and 104% (compound 3.16 µM); 103% and 121% (compound 10 µM); 103% and 89% (compound 31.6 µM); 99% and 98.9% (compound 100 µM). The IC50 (curve of compound) is over 100000 nM.

As to `CC(C)CC(NC(=O)C(Cc1ccccc1)NC(=O)c1cnccn1)B(O)O` (stereo unspecified) + CC(C)NCC(C(=O)N1CCN(c2ncnc3c2C(C)CC3O)CC1)c1ccc(Cl)cc1, the IC50 runs as follows: under setting [1], 6.01 nM; under setting [2], 5.35 nM; under setting [3], 3.83 nM; under setting [4], 4.36 nM; under setting [5], 1.38 nM. The viability, T/C (second compound 0.3 µM, first compound 31.6 pM) is 103%; the viability, T/C (second compound 0.3 µM, first compound 0.0001 µM) is 100%; the viability, T/C (second compound 0.3 µM, first compound 0.000316 µM) is 109%; the viability, T/C (second compound 0.3 µM, first compound 0.001 µM) is 109%; the viability, T/C (second compound 0.3 µM, first compound 0.00316 µM) was 104%; the viability, T/C (second compound 0.3 µM, first compound 0.01 µM) is 6.95%. In addition, the viability, T/C (second compound 0.949 µM, first compound 31.6 pM) was 105%; the viability, T/C (second compound 0.949 µM, first compound 0.0001 µM) was 106%; the viability, T/C (second compound 0.949 µM, first compound 0.000316 µM) was 147%; the viability, T/C (second compound 0.949 µM, first compound 0.001 µM) is 96.8%; the viability, T/C (second compound 0.949 µM, first compound 0.00316 µM) was 82.9%; the viability, T/C (second compound 0.949 µM, first compound 0.01 µM) was 13%. The viability, T/C reads like this: (second compound 3 µM, first compound 31.6 pM) 73.4%; (second compound 3 µM, first compound 0.0001 µM) 79.4%; (second compound 3 µM, first compound 0.000316 µM) 81.7%; (second compound 3 µM, first compound 0.001 µM) 80.3%; (second compound 3 µM, first compound 0.00316 µM) 59.1%; (second compound 3 µM, first compound 0.01 µM) 4.72%. The viability, T/C runs as follows: (second compound 9.49 µM, first compound 31.6 pM) 61%; (second compound 9.49 µM, first compound 0.0001 µM) 80.3%; (second compound 9.49 µM, first compound 0.000316 µM) 73.4%; (second compound 9.49 µM, first compound 0.001 µM) 66%; (second compound 9.49 µM, first compound 0.00316 µM) 67.7%; (second compound 9.49 µM, first compound 0.01 µM) 4.19%. Also, the viability, T/C (second compound 30 µM, first compound 31.6 pM) was 56%; the viability, T/C (second compound 30 µM, first compound 0.0001 µM) was 53.2%; the viability, T/C (second compound 30 µM, first compound 0.000316 µM) is 55.3%; the viability, T/C (second compound 30 µM, first compound 0.001 µM) was 61.4%; the viability, T/C (second compound 30 µM, first compound 0.00316 µM) was 33.3%; the viability, T/C (second compound 30 µM, first compound 0.01 µM) was 20.5%.

Regarding `Cc1nc(NC(=O)N2CCCC2C(N)=O)sc1-c1ccnc(C(C)(C)C(F)(F)F)c1` (stereo unspecified) + CC(C)NCC(C(=O)N1CCN(c2ncnc3c2C(C)CC3O)CC1)c1ccc(Cl)cc1, the IC50 under setting [1] amounted to 7120 nM; the IC50 under setting [2] was found to be 988 nM; the IC50 under setting [3] is 2690 nM; the IC50 under setting [4] was determined as 2010 nM; the IC50 under setting [5] was under 31.6 nM. For the same molecule, the viability, T/C is, setting by setting: (second compound 0.3 µM, first compound 0.0316 µM) 95.3%; (second compound 0.3 µM, first compound 0.1 µM) 77%; (second compound 0.3 µM, first compound 0.316 µM) 79.2%; (second compound 0.3 µM, first compound 1 µM) 69.4%; (second compound 0.3 µM, first compound 3.16 µM) 60.1%; (second compound 0.3 µM, first compound 10 µM) 44.7%. Besides, the viability, T/C was 77.3% (second compound 0.949 µM, first compound 0.0316 µM); 78.8% (second compound 0.949 µM, first compound 0.1 µM); 71.9% (second compound 0.949 µM, first compound 0.316 µM); 49.4% (second compound 0.949 µM, first compound 1 µM); 50.9% (second compound 0.949 µM, first compound 3.16 µM); 40.9% (second compound 0.949 µM, first compound 10 µM). Moreover, the viability, T/C (second compound 3 µM, first compound 0.0316 µM) is 63.7%; the viability, T/C (second compound 3 µM, first compound 0.1 µM) is 77.3%; the viability, T/C (second compound 3 µM, first compound 0.316 µM) is 67.5%; the viability, T/C (second compound 3 µM, first compound 1 µM) is 58%; the viability, T/C (second compound 3 µM, first compound 3.16 µM) is 46.3%; the viability, T/C (second compound 3 µM, first compound 10 µM) is 50.8%. The viability, T/C (second compound 9.49 µM, first compound 0.0316 µM) is 54.5%; the viability, T/C (second compound 9.49 µM, first compound 0.1 µM) was 64.5%; the viability, T/C (second compound 9.49 µM, first compound 0.316 µM) was 63%; the viability, T/C (second compound 9.49 µM, first compound 1 µM) was 55.8%; the viability, T/C (second compound 9.49 µM, first compound 3.16 µM) is 46%; the viability, T/C (second compound 9.49 µM, first compound 10 µM) was 39.8%. The viability, T/C (second compound 30 µM, first compound 0.0316 µM) is 39.1%; the viability, T/C (second compound 30 µM, first compound 0.1 µM) is 40.9%; the viability, T/C (second compound 30 µM, first compound 0.316 µM) was 34%; the viability, T/C (second compound 30 µM, first compound 1 µM) was 32.9%; the viability, T/C (second compound 30 µM, first compound 3.16 µM) was 27.4%; the viability, T/C (second compound 30 µM, first compound 10 µM) is 24.5%.
